Results taken from PubChem BioAssay (NCI).
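Compound exposure: 48 hours, 5 concentrations, 96-well plates. Here, GI50 denotes the concentration required for 50% inhibition of growth. TGI: concentration producing complete growth inhibition.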 Where a SMILES comes first, the peptide text is derived from it. The star is where a group is joined. Trt = c1ccc(C(c2ccccc2)(c2ccccc2)*)cc1; Cbz = O=C(OCc1ccccc1)*

How the values were obtained:
Assay in all cases: NCI-60 cell line screen, 48 h
ACHN renal = system: ACHN renal
BT-549 breast = system: BT-549 breast
IGROV1 ovarian = system: IGROV1 ovarian
OVCAR-4 ovarian = system: OVCAR-4 ovarian
SF-295 CNS = system: SF-295 CNS
SK-MEL-5 melanoma = system: SK-MEL-5 melanoma
SR leukemia = system: SR leukemia
HOP-92 NSCLC = system: HOP-92 NSCLC

SMILES	GI50 (ACHN renal) [µM]	TGI (ACHN renal) [µM]	GI50 (BT-549 breast) [µM]	TGI (BT-549 breast) [µM]	GI50 (IGROV1 ovarian) [µM]	TGI (IGROV1 ovarian) [µM]	GI50 (OVCAR-4 ovarian) [µM]	TGI (OVCAR-4 ovarian) [µM]	GI50 (SF-295 CNS) [µM]	TGI (SF-295 CNS) [µM]	GI50 (SK-MEL-5 melanoma) [nM]	TGI (SK-MEL-5 melanoma) [µM]	GI50 (SR leukemia) [nM]	TGI (SR leukemia) [µM]	GI50 (HOP-92 NSCLC) [µM]	TGI (HOP-92 NSCLC) [µM]
CCOCC1(COCC)CCC(c2[nH]ncc2CN(C)CCNC)CC1	> 100	> 100	> 100	> 100	> 100	> 100	> 100	> 100	> 100	> 100	> 100000	> 100	23700	> 100	–	–
CN=C(N)c1ccc(N=C(N)c2ccc(-c3ccc(C(N)=Nc4ccc(C(N)=NC)cc4)cc3)cc2)cc1	> 100	> 100	> 100	> 100	38.6	> 100	> 100	> 100	41.1	> 100	33600	> 100	> 100000	> 100	84.5	> 100
CC(C)=CCc1cc2c(cc1O)C1=C(C(=O)C3=C(C1=O)S(=O)(=O)CCN3)C(C=C(C)C)O2 (centres undefined)	2.27	5.65	2.31	4.78	0.959	4.76	0.469	2.44	2.38	5.1	284	0.66	870	10.9	3.31	7.61
CN1CCN(CC(=O)N(C)c2ccc(N=C(c3ccccc3)c3c(O)[nH]c4ccc(C#N)cc34)cc2)CC1	3.06	10.9	1.68	3.69	3.33	15.5	3.03	14	3.14	15.8	1590	3.16	721	5.62	3.36	20.8
C=C1C[C@H]2C=Nc3cc(OCCCOc4cc5c(cc4OC)C(=O)N4CC(=C)C[C@H]4C=N5)c(OC)cc3C(=O)N2C1	–	0.0922	0.0126	–	–	0.0341	< 0.012	0.0191	0.00706	0.64	–	–	–	0.218	–	0.151
COc1cccc(/C=C/C(=O)c2ccc3cc(OC)ccc3c2)c1	–	–	8.07	17.7	4.05	21.7	24.7	> 50	9.58	22.1	9210	18.2	10100	> 50	11.1	41.3
COc1ccc2c(c1)OC(N)=C(C#N)C2c1cc(OC)c(OC)c(OC)c1 (centres undefined)	0.0691	> 100	0.0268	0.0836	0.0463	> 51	0.0714	> 100	0.03	> 44.4	31.7	–	34.5	> 100	0.169	> 100
N#CCn1c(=O)c(Oc2ccc(F)cc2F)cc2cnc(NC3CCOCC3)nc21	19.5	> 25	24.8	> 25	> 25	> 25	> 24	> 25	> 25	> 25	> 25000	> 25	> 25000	> 25	15.4	> 25
COC(=O)C(CO)NC(=O)C(CSC(c1ccccc1)(c1ccccc1)c1ccccc1)NC(=O)OCc1ccccc1 (centres undefined) (Cbz-Cys(Trt)-Ser-OMe; configuration not given here)	–	> 53.3	–	–	–	37.3	–	> 50.2	–	34.5	–	28.4	–	0.221	–	29.8
O=C1NC(=NCCc2ccc(F)cc2)S/C1=C\c1ccc2ncccc2c1	> 25	> 25	> 25	> 25	> 25	> 25	> 25	> 25	> 25	> 25	> 25000	> 25	7090	> 25	> 25	> 25
c1cc(N[C@@H]2CCNC2)nc(-c2cnc3ccc(-c4cn[nH]c4)cn23)c1	19.2	> 100	3.06	8.32	5.46	17.6	2.84	9.92	12	> 55	14100	39.4	2370	10.1	1.38	4.51
COc1ccc(C(O)c2cc3c(N)c(C(=O)Nc4ccc(Cl)cc4)sc3nc2C)cc1 (centres undefined)	3.53	15.7	3.42	21.6	3.22	28.6	2.42	7.47	2.14	11.6	2740	10.2	440	> 100	2.37	18.3
Clc1nccc2c(-c3csc(-c4c[nH]c5ccc(Br)cc45)n3)c[nH]c12	2.02	12.6	4.7	24.4	2.51	15.4	3.25	15.9	2.48	5.61	2610	6.42	1270	> 100	2.43	6.81
Cc1ccc(CNc2ccc(Br)cc2)cc1	–	41.7	–	–	–	–	–	–	–	> 100	–	30.8	–	> 100	–	65.3
CCN1CCN(c2nc(C)cc(N(CCCNc3ccnc4cc(Cl)ccc34)Cc3ccc4c(c3)OCO4)n2)CC1	2.03	4.15	1.78	3.7	1.61	5.06	1.75	7.12	1.81	3.39	1660	3.05	339	1.58	1.15	3.1
COc1ccc(-c2cc(-c3ccc(Nc4nc(Nc5ccccc5)nc(Nc5ccc(Cl)cc5)n4)cc3)nc(N)n2)cc1	16.4	> 50	10	29.5	6.27	28.2	10.7	> 50	7.92	25.8	6550	20.9	5630	18.7	5.28	19.3
